# Assays:
# [1] = system: Immortalised Mouse Dermal Fibroblasts (MDFs); assay: Inhibition of TSI induced necroptosis in mouse dermal fibroblasts (CellTitre-Glo); conditions: Mus musculus, Fibroblast, 3 h, MDF cells, TSI cocktail (TNF, Smac mimetic, IDN-6556), read-out: Inhibition of TSI-induced necroptosis (IC50 cell-based assay) in MDF
# Method in brief: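 Immortalised MDFs (2200 cells/well, DMEM + 7.4% FBS) pretreated 30 min with compound (36 μM top, 1:3, 10 points, 0.3% DMSO), then 3 h with TNF 100 ng/ml, Smac mimetic 500 nM and IDN-6556 10 μM at 37 °C. Viability by CellTiter-Glo luminescence; IC50 from 4-parameter logistic fit.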
# U937 cells = assay: Counter screen: U937 cell viability without TSQ cocktail (off-target effect); parameters: species or system human; conditions: Homo sapiens, U-937, compound without TSQ cocktail, read-out: Off-target effect (IC50 cell-based assay)
# Method in brief: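 Off-target viability counter screen: compounds titrated 36 μM down 1:3 over 10 points (0.3% DMSO) on 20,000 U937 cells/well, no TNF/Smac mimetic/Q-VD-OPh added, 48 h incubation. ATP-based CellTiter-Glo luminescence, four-parameter logistic IC50.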
SMILES,IC50 [1],IC50 (U937 cells)
"C[C@H](Oc1cc(-c2nn(C)c3c(-c4cnn(C5CC6CCC(C5)N6CC(F)(F)F)c4)cnc(N)c23)ccc1NS(=O)(=O)C(F)F)c1ccc(F)cc1 (stereo partly drawn) [Compound 153, N-(4-(4-amino-1-methyl-7-(1-(8-(2,2,2-trifluoroethyl)-8-azabicyclo[3.2.1]octan-3-yl)-1H-pyrazol-4-yl)-1H-pyrazolo[4,3-c]pyridin-3-yl)-2-((S)-1-(4-fluorophenyl)ethoxy)phenyl)-1,1-difluoromethanesulfonamide]",0.1 to 1 µM,> 10 µM
"Cc1c(-c2cnc(N)c3c(-c4ccc(NS(=O)(=O)C(F)F)c(O[C@@H](C)c5ccc(F)cc5)c4)nn(C)c23)cnn1C1CCN(C)C(C)(C)C1 (stereo partly drawn) [Compound 157, N-(4-(4-amino-1-methyl-7-(5-methyl-1-(1,2,2-trimethylpiperidin-4-yl)-1H-pyrazol-4-yl)-1H-pyrazolo[4,3-c]pyridin-3-yl)-2-((S)-1-(4-fluorophenyl)ethoxy)phenyl)-1,1-difluoromethanesulfonamide]",1 to 10 µM,> 10 µM
"C[C@H](Oc1cc(-c2nn(C)c3c(-c4cnn(C5CCN(C)C(C)(C)C5)c4)cnc(N)c23)ccc1NS(=O)(=O)C(F)F)c1ccc(Cl)cc1 (stereo partly drawn) [Compound 159, N-(4-(4-amino-1-methyl-7-(1-(1,2,2-trimethylpiperidin-4-yl)-1H-pyrazol-4-yl)-1H-pyrazolo[4,3-c]pyridin-3-yl)-2-((S)-1-(4-chlorophenyl)ethoxy)phenyl)-1,1-difluoromethanesulfonamide]",< 0.1 µM,> 10 µM
"C[C@H](Oc1cc(-c2nn(C)c3c(-c4cnn(C5CC(C)(C)N(C)C(C)(C)C5)c4)cnc(N)c23)ccc1NS(=O)(=O)C(F)F)c1ccc(F)cc1 [Compound 162, (S)-N-(4-(4-amino-1-methyl-7-(1-(1,2,2,6,6-pentamethylpiperidin-4-yl)-1H-pyrazol-4-yl)-1H-pyrazolo[4,3-c]pyridin-3-yl)-2-(1-(4-fluorophenyl)ethoxy)phenyl)-1,1-difluoromethanesulfonamide]",< 0.1 µM,> 10 µM
"C[C@H](Oc1cc(-c2nn(C)c3c(-c4cnn(C5C[C@H]6CNC[C@H]6C5)c4)cnc(N)c23)ccc1NS(=O)(=O)C(F)F)c1ccc(F)cc1 (stereo partly drawn) [Compound 163, N-(4-(4-amino-1-methyl-7-(1-((3aR,6aS)-octahydrocyclopenta[c]pyrrol-5-yl)-1H-pyrazol-4-yl)-1H-pyrazolo[4,3-c]pyridin-3-yl)-2-((S)-1-(4-fluorophenyl)ethoxy)phenyl)-1,1-difluoromethanesulfonamide]",1 to 10 µM,> 10 µM
"C[C@H](Oc1cc(-c2nn(C)c3c(-c4cnn(C5C[C@@H]6CN(C)C[C@@H]6C5)c4)cnc(N)c23)ccc1NS(=O)(=O)C(F)F)c1ccc(F)cc1 (stereo partly drawn) [Compound 164, N-(4-(4-amino-1-methyl-7-(1-((3aR,6aS)-2-methyloctahydrocyclopenta[c]pyrrol-5-yl)-1H-pyrazol-4-yl)-1H-pyrazolo[4,3-c]pyridin-3-yl)-2-((S)-1-(4-fluorophenyl)ethoxy)phenyl)-1,1-difluoromethanesulfonamide]",< 0.1 µM,> 10 µM
"C[C@H](Oc1cc(-c2nn(C)c3c(-c4ccc5c(cnn5C)c4)cnc(N)c23)ccc1NS(=O)(=O)C(F)F)c1ccc(F)cc1 [Compound 166, (S)-N-(4-(4-amino-1-methyl-7-(1-methyl-1H-indazol-5-yl)-1H-pyrazolo[4,3-c]pyridin-3-yl)-2-(1-(4-fluorophenyl)ethoxy)phenyl)-1,1-difluoromethanesulfonamide]",1 to 10 µM,> 10 µM
"C[C@H](Oc1cc(-c2nn(C)c3c(-c4cnn(C5CCN(CC(F)(F)F)C(C)(C)C5)c4)cnc(N)c23)ccc1NS(=O)(=O)C(F)F)c1ccc(F)cc1 (stereo partly drawn) [Compound 167, N-(4-(4-amino-7-(1-(2,2-dimethyl-1-(2,2,2-trifluoroethyl)piperidin-4-yl)-1H-pyrazol-4-yl)-1-methyl-1H-pyrazolo[4,3-c]pyridin-3-yl)-2-((S)-1-(4-fluorophenyl)ethoxy)phenyl)-1,1-difluoromethanesulfonamide]",< 0.1 µM,1 to 10 µM
"CC1CN(C)CC(C)C1n1cc(-c2cnc(N)c3c(-c4ccc(NS(=O)(=O)C(F)F)c(O[C@@H](C)c5ccc(F)cc5)c4)nn(C)c23)cn1 (stereo partly drawn) [Compound 172, N-(4-{4-amino-1-methyl-7-[1-(1,3,5-trimethylpiperidin-4-yl)-1H-pyrazol-4-yl]-1H-pyrazolo[4,3-c]pyridin-3-yl}-2-[(1S)-1-(4-fluorophenyl)ethoxy]phenyl)-1,1-difluoromethanesulfonamide]",< 0.1 µM,> 10 µM
